Source: US20250195521A1 (Revolution Medicines, Inc., priority 2020, published 2025)
Like-named read-outs stand apart in the source and are kept apart here.

Columns and labels:
[1] = system: K-Ras G12C (NCI-H358 cells); assay: Potency assay: pERK in NCI-H358 cells; format: cell-based, human; details: Homo sapiens, read-out: pERK EC50 (H358 KRAS G12C)
In short: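 Cells plated the day before were exposed for 4 h at 37° C, 5% CO2 to a 10-point, 3-fold DMSO dilution series (10 mM top stock), in duplicate. Phospho-ERK was read by AlphaLISA SureFire Ultra or by In-Cell Western with DRAQ5 DNA stain, and IC50 came from a 4-parameter sigmoidal fit.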

[2] = system: NCI-H358 (K-Ras G12C); assay: CellTiter-Glo cell viability assay, NCI-H358; format: cell-based, human
In short: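 Viability read-out was luminescent (CellTiter-Glo) on day 5 of compound exposure in K-Ras G12C NCI-H358 cells. Values were expressed as percent of mean DMSO signal and fitted with a four-parameter logistic curve.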

[3] = Homo sapiens, NCI-H358, 120 h, 5-day treatment, read-out: H358 Cell Viability assay data (K-Ras G12C, IC50)
[4] = Homo sapiens, NCI-H358, 120 h, read-out: H358 Cell Viability assay data (K-Ras G12C, IC50, uM), 5-day treatment
[5] = 5-day treatment, read-out: H358 Cell Viability assay data (K-Ras G12C, IC50)

C=CC(=O)N1CC[C@H](C(=O)N(C)[C@H](C(=O)N[C@H]2Cc3cccc(c3)-c3ccc4c(c3)c(c(-c3cccnc3[C@H](C)OC)n4CC)CC(C)(C)COC(=O)[C@@H]3CCCN(N3)C2=O)[C@@H](C)C(F)(F)F)C1 (atropisomer, axis not shown) [Compound A640]
EC50 ([1]; NCI-H358 cells, 4 hours): < 5 µM | IC50 [2, 3]: 0.01 to 0.1 µM

CCn1c(-c2cccnc2[C@H](C)OC)c2c3cc(ccc31)-c1csc(n1)C[C@H](NC(=O)[C@H](C(C)C)N(C)C(=O)N1CC[C@]3(CCN(C)C3=O)C1)C(=O)N1CCC[C@H](N1)C(=O)OCC(C)(C)C2 (single isomer, unassigned) [Compound A461]
EC50 ([1]; NCI-H358 cells, 4 hours): < 5 µM | IC50 [2, 3]: < 0.01 µM

C=CC(=O)N1CC[C@H](C(=O)N(C)[C@H](C(=O)N[C@H]2Cc3cc(N)cc(c3)-c3ccc4c(c3)c(c(-c3ccccc3COC)n4CC)CC(C)(C)COC(=O)[C@@H]3CCCN(N3)C2=O)C(C)C)C1 [Compound A2]
EC50 ([1]; NCI-H358 cells, 4 hours): < 5 µM | IC50 [2, 3]: > 10 µM

CCn1c(-c2cccnc2[C@H](C)OC)c2c3cc(ccc31)-c1cc(O)cc(c1)C[C@H](NC(=O)[C@H](C(C)C)N(C)C(=O)C1COC1)C(=O)N1CCC[C@H](N1)C(=O)OCC(C)(C)C2 [Compound A18]
EC50 ([1]; NCI-H358 cells, 4 hours): < 5 µM | IC50 [2, 3]: 0.1 to 1 µM

C=CC(=O)N1CC[C@H](C(=O)N(C)[C@H](C(=O)N[C@H]2Cc3cc(O)cc(c3)-c3ccc4c(c3)c(c(-c3ccc(CC(=O)O)nc3)n4CC)CC(C)(C)COC(=O)[C@@H]3CCCN(N3)C2=O)C(C)C)C1 [Compound A21]
EC50 ([1]; NCI-H358, 4 h): < 5 µM | IC50 [2, 4]: > 10 µM

C=CC(=O)N1CC[C@H](C(=O)N(C)[C@H](C(=O)N[C@H]2Cc3cc(O)cc(c3)-c3ccc4c(c3)c(c(-c3ncccc3[C@H](C)OC)n4CC)CC(C)(C)COC(=O)[C@@H]3CCCN(N3)C2=O)C(C)C)C1 [Compound A22]
EC50 ([1]; NCI-H358, 4 h): < 5 µM | IC50 [2, 4]: 0.01 to 0.1 µM

C=CC(=O)N1CC[C@H](C(=O)N(C)[C@H](C(=O)N[C@H]2Cc3cc(O)cc(c3)-c3ccc4c(c3)c(c(-c3ccccc3CCOC)n4CC)CC(C)(C)COC(=O)[C@@H]3CCCN(N3)C2=O)C(C)C)C1 [Compound A24]
EC50 ([1]; NCI-H358 cells, 4 hours): < 5 µM | IC50 [2, 3]: > 10 µM

CCn1c(-c2cnccc2COC)c2c3cc(ccc31)-c1cc(O)cc(c1)C[C@H](NC(=O)[C@H](C(C)C)N(C)C(=O)N1CC(OC)C1)C(=O)N1CCC[C@H](N1)C(=O)OCC(C)(C)C2 [Compound A30]
EC50 ([1]; NCI-H358 cells, 4 hours): < 5 µM | IC50 [2, 3]: 0.01 to 0.1 µM

C=CC(=O)N1CC[C@H](C(=O)N(C)[C@H](C(=O)N[C@H]2Cc3ncc(n3C)-c3ccc4c(c3)c(c(-c3cccnc3[C@H](C)OC)n4CC)CC(C)(C)COC(=O)[C@@H]3CCCN(N3)C2=O)C(C)C)C1 [Compound A276]
IC50 [2, 3]: > 10 µM

C=CC(=O)N1CC[C@H](C(=O)N(C)[C@H](C(=O)N[C@H]2Cc3cc(O)cc(c3)-c3ccc4c(c3)c(c(-c3cccnc3[C@@H]3CCCO3)n4CC)CC(C)(C)COC(=O)[C@@H]3CCCN(N3)C2=O)C(C)C)C1 [Compound A281]
IC50 [2, 3]: < 0.01 µM

CCn1c(-c2cccnc2[C@H](C)OC)c2c3cc(ccc31)-c1csc(n1)C[C@H](NC(=O)[C@H](C(C)C)N(C)C(=O)N1CC3CC(C1)N3C)C(=O)N1CCC[C@H](N1)C(=O)OCC(C)(C)C2 [Compound A284]
IC50 [2, 4]: 0.1 to 1 µM

C=CC(=O)N1CC[C@H](C(=O)N(C)[C@H](C(=O)N[C@H]2Cc3nc(ns3)-c3ccc4c(c3)c(c(-c3cncnc3)n4CC)CC(C)(C)COC(=O)[C@@H]3CCCN(N3)C2=O)C(C)C)C1 [Compound A285]
IC50 [2, 3]: > 10 µM

C=CC(=O)N1CC[C@H](C(=O)N(C)[C@H](C(=O)N[C@H]2Cc3nc(cs3)-c3ccc4c(c3)c(c(-c3cccnc3[C@H](C)OC)n4CC)CC(C)(C)CN(C)C[C@@H]3CCCN(N3)C2=O)C(C)C)C1 [Compound A287]
IC50 [2, 3]: > 10 µM

C=CC(=O)N1CC[C@H](C(=O)N(C)[C@H](C(=O)N[C@H]2Cc3nc(cs3)-c3ccc4c(c3)c(c(-c3cccnc3[C@H](C)OC)n4CC)CC(C)(C)CCC[C@@H]3CCCN(N3)C2=O)C(C)C)C1 [Compound A288]
IC50 [2, 3]: > 10 µM

CO[C@@H](C)c1ncccc1-c1nc2ccc3cn2c1CC(C)(C)COC(=O)[C@@H]1CCCN(N1)C(=O)[C@@H](NC(=O)[C@H](C(C)C)N(C)C(=O)[C@H]1CCN(C(=O)C#CC(C)(C)N(C)C)C1)Cc1cccc-3c1 [Compound A311]
IC50 [2, 3]: > 10 µM

CCn1c(-c2cccnc2[C@H](C)OC)c2c3cc(ccc31)-c1csc(n1)C[C@H](NC(=O)C1(F)COC1)C(=O)N1CCC[C@H](N1)C(=O)OCC(C)(C)C2 [Compound A320]
IC50 [2, 3]: 0.01 to 0.1 µM

C=CC(=O)Nc1ccc(C(=O)N(C)[C@H](C(=O)N[C@H]2Cc3cc(O)cc(c3)-c3ccc4c(c3)c(c(-c3cccnc3[C@H](C)OC)n4CC)CC(C)(C)COC(=O)[C@@H]3CCCN(N3)C2=O)C(C)C)cn1 [Compound A336]
IC50 [2, 5]: < 0.01 µM

C=CC(=O)N1CC[C@H](C(=O)N(C)[C@H](C(=O)N[C@H]2Cc3nc(cs3)-c3ccc4c(n3)c(c(-c3cccnc3[C@H](C)OC)n4CC)CC(C)(C)COC(=O)[C@@H]3CCCN(N3)C2=O)C(C)C)C1 [Compound A347, (2S)—N-[(7S,13S)-21-ethyl-20-{2-[(1S)-1-methoxyethyl]pyridin-3-yl}-17,17-dimethyl-8,14-dioxo-15-oxa-4-thia-9,21,25,27,28-pentaazapentacyclo[17.5.2.1^{2,5}0.1^{9,13}0.0^{22,26}]octacosa-1 (25),2,5 (28), 19,22 (26),23-hexaen-7-yl]-3-methyl-2-{N-methyl-1-[(3S)-1-(prop-2-enoyl)pyrrolidin-3-yl]formamido}butanamide]
IC50 [2, 3]: 0.1 to 1 µM

CCn1c(-c2cccnc2[C@H](C)OC)c2c3cc(ccc31)-c1csc(n1)C[C@H](NC(=O)[C@H](C(C)C)N(C)C(=O)N1CC(N(C)C(=O)C#CC(C)(C)N3CCC3)C1)C(=O)N1CCC[C@H](N1)C(=O)OCC(C)(C)C2 [Compound A379]
IC50 [2, 3]: < 0.01 µM

C=CC(=O)N1CC[C@H](C(=O)N(C)[C@H](C(=O)N[C@H]2C[C@H]3CN(CCCO3)c3ccc4c(c3)c(c(-c3cccnc3[C@H](C)OC)n4CC)CC(C)(C)COC(=O)[C@@H]3CCCN(N3)C2=O)C(C)C)C1 [Compound A405]
IC50 [2, 3]: > 10 µM

C=CC(=O)N1CC[C@H](C(=O)N(C)[C@H](C(=O)NC2C[C@H]3CN(CCCO3)c3ccc4c(c3)c(c(-c3cccnc3[C@H](C)OC)n4CC)CC(C)(C)COC(=O)[C@@H]3CCCN(N3)C2=O)C(C)C)C1 (some centres unmarked) [Compound A429]
IC50 [2, 3]: > 10 µM

C=CC(=O)N1CC(OCC(C(=O)N[C@H]2Cc3cc(cc(C(F)F)c3)-c3ccc4c(c3)c(c(-c3cccnc3[C@H](C)OC)n4CC)CC(C)(C)COC(=O)[C@@H]3CCCN(N3)C2=O)C(C)C)C1 (some centres unmarked) [Compound A450]
IC50 [2, 3]: > 10 µM

CCn1c(-c2cccnc2[C@H](C)OC)c2c3cc(ccc31)-c1csc(n1)C[C@H](NC(=O)[C@H](C(C)C)N(C)C(=O)N1CC([C@H](C)CO)C1)C(=O)N1CCC[C@H](N1)C(=O)OCC(C)(C)C2 [Compound A478]
IC50 [2, 3]: 0.01 to 0.1 µM

CCn1c(-c2cccnc2[C@H](C)OC)c2c3cc(ccc31)-c1csc(n1)C[C@H](NC(=O)[C@H](C(C)C)N(C)C(=O)N1CC3(CC(N4CCOCC4)C3)C1)C(=O)N1CCC[C@H](N1)C(=O)OCC(C)(C)C2 [Compound A486]
IC50 [2, 3]: 0.1 to 1 µM

CCn1c(-c2cccnc2[C@H](C)OC)c2c3cc(ccc31)-c1csc(n1)[C@@H](O)[C@H](NC(=O)[C@H](C(C)C)N(C)C(=O)N1CC(N(C)C)C1)C(=O)N1CCC[C@H](N1)C(=O)OCC(C)(C)C2 [Compound A489]
IC50 [2, 3]: 0.01 to 0.1 µM

C=CC(=O)N1CC[C@H](C(=O)N(C)[C@H](C(=O)N[C@H]2CCC(=O)N(C)Cc3ccc4c(c3)c(c(-c3cccnc3[C@H](C)OC)n4CC)CC(C)(C)COC(=O)[C@@H]3CCCN(N3)C2=O)C(C)C)C1 [Compound A500]
IC50 [2, 3]: > 10 µM

C=CC(=O)N1CC[C@H](C(=O)N(C)[C@H](C(=O)N[C@H]2Cc3cccc(c3)-c3ccc4c(c3)c(c(-c3cc(C5=CCN(C)CC5)cnc3[C@H](C)OC)n4CC)CC(C)(C)COC(=O)[C@@H]3CCCN(N3)C2=O)C(C)C)C1 [Compound A514]
IC50 [2, 3]: 0.1 to 1 µM

C=CC(=O)N1CC[C@H](C(=O)N(C)[C@H](C(=O)N[C@H]2Cc3cccc(c3)-c3ccc4c(c3)c(c(-c3cc(C5CCN(C)CC5)cnc3[C@H](C)OC)n4CC)CC(C)(C)COC(=O)[C@@H]3CCCN(N3)C2=O)C(C)C)C1 [Compound A515]
IC50 [2, 3]: < 0.01 µM

C=CC(=O)N1CC[C@H](C(=O)N(C)[C@H](C(=O)N[C@H]2Cc3nc(cs3)-c3ccc4c(c3)c(c(-c3cc(C5=CCN(C)CC5)cnc3[C@H](C)OC)n4CC)CC(C)(C)COC(=O)[C@@H]3CCCN(N3)C2=O)C(C)C)C1 [Compound A520]
IC50 [2, 5]: < 0.01 µM

C=CC(=O)N1CC[C@H](C(=O)N(C)[C@H](C(=O)N[C@H]2Cc3cccc(c3)-c3ccc4c(c3)c(c(-c3cc(CN(C)C)cnc3[C@H](C)OC)n4CC)CC(C)(C)COC(=O)[C@@H]3CCCN(N3)C2=O)C(C)C)C1 [Compound A523]
IC50 [2, 5]: 0.1 to 1 µM

CCn1c(-c2cccnc2[C@H](C)OC)c2c3cc(ccc31)-c1csc(n1)C[C@H](NC(=O)[C@H](C(C)C)N(C)C(=O)N1C3CC1CN(C)C3)C(=O)N1CCC[C@H](N1)C(=O)OCC(C)(C)C2 [Compound A541]
IC50 [2, 3]: 0.01 to 0.1 µM

CO[C@@H](COC1CN(C(=O)C#CC(C)(C)N(C)C)C1)C(=O)N[C@H]1Cc2cccc(c2)-c2ccc3c(c2)c(c(-c2cccnc2[C@H](C)OC)n3CC(F)(F)F)CC(C)(C)COC(=O)[C@@H]2CCCN(N2)C1=O [Compound A556]
IC50 [2, 3]: < 0.01 µM

CCn1c(-c2cccnc2[C@H](C)OC)c2c3cc(ccc31)-c1cccc(c1)C[C@H](NC(=O)[C@H](C(C)C)N1CC[C@]3(CCN(C(=O)C#C[C@]4(N(C)C)CCOC4)C3)C1=O)C(=O)N1CCC[C@H](N1)C(=O)OCC(C)(C)C2 [Compound A559]
IC50 [2, 3]: < 0.01 µM
